Measurements published in patent US20100184955A1, “ANTICANCER PRODRUG SENSITIVE TO TARGET PROTEASE” (priority 2009, published 2010).

Test system: HeLa cells
Experiment: MTT cytotoxicity test in HeLa cells
Assay type: cell-based
Settings: different concentrations, FIG. 4
Method: Each of Dox and albumin-peptide-Dox at different concentrations was added to HeLa cells and then a 3-(4,5-dimethylthiazol-2-yl)-2,5-diphenyltetrazolium bromide (MTT) assay was performed to evaluate cytotoxicity.

SMILES: COc1cccc2c1C(=O)c1c(O)c3c(c(O)c1C2=O)C[C@@](O)(C(=O)CO)C[C@@H]3O[C@H]1C[C@H](N)[C@H](O)[C@H](C)O1 [Dox, doxorubicin]
- cytotoxicity (MTT assay): the level of cytotoxicity was increased in proportion to the concentration
